Results: patent US20100221350A1, “DERMATOLOGICAL COMPOSITIONS COMPRISING VITAMIN D LIPID VESICLES” (GALDERMA S.A., priority 2007, published 2010)

Assay: Preformulation stability and solubility tests of calcitriol in two excipients
Type: physicochemical
Settings: 800 ppm; 4° C., ambient temperature and 40° C.; 1 month
Protocol: Preliminary preformulation studies were carried out to direct the choice of the lipid core (oily internal phase) of the lipid vesicles. The results of tests of stability and of solubility of calcitriol in two excipients are presented in the graphs below. The objective of these solubility and stability studies on calcitriol is to find the oil which will make possible good solubility of calcitriol for the proposals for internal phase used in this concept and good stability of calcitriol in this excipient. Calcitriol is stable at 800 ppm in Miglyol 812 (caprylic/capric triglyceride: MTC) and tocopherol acetate at the three temperatures (4° C., ambient temperature and 40° C.) for 1 month.

For `C=C1/C(=C\C=C2/CCC[C@]3(C)[C@@H]([C@H](C)CCCC(C)(C)O)CC[C@@H]23)C[C@@H](O)C[C@@H]1O` [Calcitriol, calcitriol], which “Stability of calcitriol in Miglyol 812 (caprylic/capric triglyceride)” value is on record?
The value was “stable”.

What about the “Stability of calcitriol in tocopherol acetate” value of the same molecule?
Its value is “stable”.
